Where two headings read alike, the source gives them in different places. Values belong to the compound of their own block, whether it stands above or below them.
How the values were obtained:
[1] = Solubility test in common solvents (visual dissolution); assay type: physicochemical; details: 25° C.±5° C., observed within 30 minutes
Method: The sample that has been ground into fine powder was weighed and added to a certain volume of solvent (ambient temperature: 25° C.±5° C.), shaken strongly for 30 seconds every 5 minutes, and the dissolution was observed within 30 minutes. If there were no visually visible solute particles or droplets, the sample was regarded as completely dissolved. According to this method, the dissolution of crystal form A of the hydrochloride hydrate of the compound shown in formula I and the free base form of the compound shown in formula I in common solvents was observed, and the results are shown in Table 3.

[2] = Stability test in stable chamber (temperature and humidity); assay type: physicochemical; details: for Content of compound shown in formula I: HPLC
Method: Whether the temperature and humidity have an impact on the stability of the crystal form A of the hydrochloride hydrate of the compound shown in formula I was tested: […]

[3] = molecular target: T1, JAK3 (Homo sapiens, UniProt P52333); test: HTRF in vitro enzyme activity biochemical assay, JAK3; details: 1 mM ATP, 37 ng/mL JAK3
T1 construct: purchased Carna Biosciences, Inc. 08-046
T1 sequence (P52333 795-1124 limits assumed): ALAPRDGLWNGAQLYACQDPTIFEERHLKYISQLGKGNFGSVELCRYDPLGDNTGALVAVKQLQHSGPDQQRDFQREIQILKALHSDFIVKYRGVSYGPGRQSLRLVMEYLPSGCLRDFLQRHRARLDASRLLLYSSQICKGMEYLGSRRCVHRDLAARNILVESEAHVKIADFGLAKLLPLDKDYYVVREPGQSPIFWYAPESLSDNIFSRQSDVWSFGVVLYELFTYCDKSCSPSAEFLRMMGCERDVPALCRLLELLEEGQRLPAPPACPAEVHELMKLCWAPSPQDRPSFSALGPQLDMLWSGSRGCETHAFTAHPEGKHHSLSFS
Method: (§1) Then, the concentration of the compound diluent was further diluted to 2.5-fold of the final test concentration with the kinase reaction buffer to obtain a compound solution to be tested.
(§2) The enzymatic reaction was initiated by adding a mixture of 2 μL of substrate and 2 μL of ATP prepared in kinase reaction buffer. […] The percentage of inhibition was calculated according to the formula: percentage of inhibition=100%−ratio value of a treated compound/ratio value of a treated DMSO carrier (DMSO carrier was a blank control group without drugs).
(§3) A dose-response curve was generated, and IC50 was calculated by non-linear S-shaped curve fitting using GraphPad Prism software.

[4] = Comparison of thermodynamic stability of crystal forms in saturated ethanol/water solution; assay type: physicochemical; details: ethanol/water 9:1 saturated solution, 50° C., stirred 24 hours
Method: Crystal form A, crystal form E and crystal form F were respectively dissolved in a mixed solvent of ethanol/water (volume ratio=9:1) to prepare a saturated solution. The saturated solution was heated to 50° C., and 10 mg of crystal form A, crystal form E and crystal form F were respectively added with stirring. The mixture was kept at 50° C., stirred for 24 hours, then filtered, and the XRPD of the resulting crystals was respectively determined (XRPD patterns of crystals precipitated by adding crystal forms A, E and F are shown in FIGS. 10, 11 and 12, respectively).

[5] = Single dose PK study; assay type: in vivo; details: female SD rats, single oral dose 3 mg/kg, 0.5% CMC-Na suspension, plasma
Method: Two groups of SD rats (3 females in each group) were given a single oral dose of 3 mg/kg free base of the compound shown in formula I and a single oral dose of 3 mg/kg crystal form A of hydrochloride hydrate of the compound shown in formula I, respectively. The drug was administered as a 0.5% CMC-Na suspension. Samples were taken at different times until 24 hours, and the drug concentration of the compound shown in formula I in plasma was analyzed by LC-MS/MS method, and the final calculation results are shown in Table 8.
Chromatographic Conditions of LC-MS/MS Method for Compound Shown in Formula I:
• instrument model, SHIMADZU LC-30AD liquid phase system; chromatographic column, ACQUITY UPLC® BEH C18 (2.1×50 mm, 1.7 μm); column temperature, 40° C.; injection volume, 1 μL; flow rate of 0.6 mL/min; run time of 6 min; • the mobile phase gradient settings are shown in Table 5.
Instrument model, AB SCIEX TRIPLE QUAD 6500 mass spectrometer; ion source, electrospray (ESI); ionization mode, positive ion scanning; multi-ion (MRM) ion pairs are shown in Table 6; instrument parameters are shown in Table 7.

[6] = molecular target: T2, JAK1 (Homo sapiens, UniProt P23458); test: HTRF in vitro enzyme activity biochemical assay, JAK1; details: 1 mM ATP, 500 ng/mL JAK1
T2 construct: purchased Invitrogen PV4774
T2 sequence (P23458 866-1154 limits assumed): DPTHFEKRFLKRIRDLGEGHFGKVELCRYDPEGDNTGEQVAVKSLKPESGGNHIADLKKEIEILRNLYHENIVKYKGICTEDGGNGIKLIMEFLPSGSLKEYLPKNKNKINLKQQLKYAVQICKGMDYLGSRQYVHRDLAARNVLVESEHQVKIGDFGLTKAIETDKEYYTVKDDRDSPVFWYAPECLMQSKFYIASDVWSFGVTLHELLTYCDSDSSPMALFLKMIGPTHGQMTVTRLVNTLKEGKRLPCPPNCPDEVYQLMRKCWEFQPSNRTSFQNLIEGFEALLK
Method: as §1, §2, §3

[7] = molecular target: T3, JAK2 (Homo sapiens, UniProt O60674); test: HTRF in vitro enzyme activity biochemical assay, JAK2; details: 1 mM ATP, 6 ng/mL JAK2
T3 construct: purchased Carna Biosciences, Inc. 08-045
T3 sequence (O60674 826-1132 limits assumed): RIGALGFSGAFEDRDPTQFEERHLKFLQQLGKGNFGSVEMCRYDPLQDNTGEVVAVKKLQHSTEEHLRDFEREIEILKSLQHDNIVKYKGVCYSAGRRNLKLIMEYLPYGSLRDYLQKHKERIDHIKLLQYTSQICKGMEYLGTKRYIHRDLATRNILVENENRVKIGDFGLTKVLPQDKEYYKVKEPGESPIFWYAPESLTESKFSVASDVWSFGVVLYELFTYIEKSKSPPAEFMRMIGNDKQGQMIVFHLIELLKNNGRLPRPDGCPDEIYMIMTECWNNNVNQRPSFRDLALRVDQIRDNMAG
Method: as §1, §2, §3

[8] = molecular target: T4, TYK2 (Homo sapiens, UniProt P29597); test: HTRF in vitro enzyme activity biochemical assay, TYK2; details: 1 mM ATP, 100 ng/mL TYK2
T4 construct: purchased Carna Biosciences, Inc. 08-147
T4 sequence (P29597 871-1187 limits assumed): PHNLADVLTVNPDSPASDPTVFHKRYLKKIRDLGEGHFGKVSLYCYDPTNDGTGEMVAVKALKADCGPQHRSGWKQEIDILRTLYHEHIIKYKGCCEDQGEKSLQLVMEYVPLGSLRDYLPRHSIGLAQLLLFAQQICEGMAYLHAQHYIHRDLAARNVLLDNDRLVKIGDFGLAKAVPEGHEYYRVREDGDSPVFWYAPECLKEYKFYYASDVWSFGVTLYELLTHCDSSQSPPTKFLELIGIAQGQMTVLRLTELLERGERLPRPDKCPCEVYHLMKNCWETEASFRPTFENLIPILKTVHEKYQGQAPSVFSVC
Method: as §1, §2, §3

[9] = Hygroscopicity study; assay type: physicochemical; details: 25° C./75%-RH for 5 days
[10] = 40° C./60%-RH and 25° C./75%-RH, after 30 days
[11] = listed as Free base of compound shown in formula I

SMILES: O=C(Nc1cn2c(-c3ccc(CN4CCS(=O)(=O)CC4)cc3F)cccc2n1)C1CC1 [Crystal form D]
- Hygroscopic weight gain [9]: 8.1%

SMILES: O=C(Nc1cn2c(-c3ccc(CN4CCS(=O)(=O)CC4)cc3F)cccc2n1)C1CC1 [Crystal form E]
- Crystal form of the solid after stirring in saturated solution (XRPD) [4]: transformed into crystal form A
- Hygroscopic weight gain [9]: 5.3%

SMILES: O=C(Nc1cn2c(-c3ccc(CN4CCS(=O)(=O)CC4)cc3F)cccc2n1)C1CC1 [Free base]
- Solubility in ethanol [1, 11]: Slightly soluble
- Solubility in methanol [1, 11]: Slightly soluble
- Solubility in simulated gastric juice [1, 11]: Insoluble
- Solubility in water [1, 11]: Very slightly soluble
- Cmax ([5]; female, SD, rat, po, 3 mg/kg, read-out: Cmax): 352 ng/mL
- AUC(0-t) ([5]; female, SD, rat, po, 3 mg/kg, up to 24 hours): 987 ng·h/mL

The next lines start with the values.

- Solubility in ethanol [1]: Soluble
- Solubility in methanol [1]: Very soluble
- Solubility in simulated gastric juice [1]: Sparingly soluble
- Solubility in water [1]: Soluble
- Change in XRPD compared with initial crystal form [2, 10]: no significant change
- Change in appearance compared with initial crystal form [2, 10]: no significant change
- Content of compound shown in formula I ([2]; initial): 99.901%
- Content of compound shown in formula I ([2]; placed at 25° C./75%-RH for 30 days): 99.899%
- Content of compound shown in formula I ([2]; placed at 40° C./75%-RH for 30 days): 99.905%
- IC50 [3]: 5520 nM
- Crystal form of the solid after stirring in saturated solution (XRPD) [4]: still crystal form A
- Cmax [5]: 456 ng/mL
- AUClast ([5]; up to 24 hours): 1390 ng·h/mL
- IC50 [6]: 145 nM
- IC50 [7]: 462 nM
- IC50 [8]: 653 nM
- Hygroscopic weight gain [9]: 2.4%
SMILES: O=C(Nc1cn2c(-c3ccc(CN4CCS(=O)(=O)CC4)cc3F)cccc2n1)C1CC1 [Crystal form A]

- Hygroscopic weight gain [9]: 6.1%
SMILES: O=C(Nc1cn2c(-c3ccc(CN4CCS(=O)(=O)CC4)cc3F)cccc2n1)C1CC1 [Crystal form C]

- Crystal form of the solid after stirring in saturated solution (XRPD) [4]: transformed into crystal form A
- Hygroscopic weight gain [9]: 4.9%
SMILES: O=C(Nc1cn2c(-c3ccc(CN4CCS(=O)(=O)CC4)cc3F)cccc2n1)C1CC1 [Crystal form F]

— patent publication US12637457B2, “Salt form and crystal form of JAK inhibitor, preparation method therefor, and use thereof” (SHANGHAI FUDAN-ZHANGJIANG BIO-PHARMACEUTICAL CO., LTD., priority 2020, dated 2026)
